# Measurements taken from patent US20110046223A1, “TREATMENT OF NEUROFIBROMATOSIS” (RAMOT AT TEL-AVIV UNIVERSITY LTD., priority 2006, published 2011).
# Assays:
# Format in all cases: cell-based, human
# [1] = test system: p120 RasGAP; test: p120 RasGAP amounts, immunoblot; settings: 75 μM FTS, 48 hours, NF-1 and non-NF-1 cells
# Method: (§1) Unless otherwise indicated, cells were lysed 48 hours after being treated with lysis buffer, as described in Haklai, et al., supra. […] Protein bands were visualized by ECL and quantified by densitometry with Image Master VDS-CL (Amersham) using TINA 2.0 software (Ray Tests). To obtain reliable comparisons between replicated experiments for statistical analysis, a standardization procedure was used, in which the density of each given protein band as recorded with its specific Ab, was normalized. […] The standard average density was defined as 1.0, and each of the individually determined bands was related to this value. […] Actin cytoskeletal elements were labeled with rhodamine-phalloidin, and digital fluorescence images were collected on a Zeiss LSM 510 confocal microscope fitted with fluorescein and rhodamine filters, as described in Gana-Weisz, M., et al., supra. […]
# [2] = test system: Ras-GTP; test: steady-state Ras-GTP, GST-RBD pull-down assay; settings: 75 μM FTS, 48 hours, TS265P21, 90-8, and ST88-14 cells, P<0.03
# Method: (§2) Unless otherwise indicated, cells were lysed 48 hours after being treated with lysis buffer, as described in Haklai, et al., supra. […] Protein bands were visualized by ECL and quantified by densitometry with Image Master VDS-CL (Amersham) using TINA 2.0 software (Ray Tests). To obtain reliable comparisons between replicated experiments for statistical analysis, a standardization procedure was used, in which the density of each given protein band as recorded with its specific Ab, was normalized. […] The standard average density was defined as 1.0, and each of the individually determined bands was related to this value. […] Actin cytoskeletal elements were labeled with rhodamine-phalloidin, and digital fluorescence images were collected on a Zeiss LSM 510 confocal microscope fitted with fluorescein and rhodamine filters, as described in Gana-Weisz, M., et al., supra.
# To determine whether the steady-state levels of active Ras in the MPNST cell lines correlated with neurofibromin deficiency, the GST-Ras binding domain of Raf-1 (RBD) pull-down assay and Western immunoblotting with anti-Ras Ab was performed. […] Thus, the relatively large amounts of Ras-GTP detected in the MPNST cell lines and the relatively small amounts in the non-NF-1 MPNST (FIG. 1D) correlated well with the observed neurofibromin deficiency (FIG. 1C). […]
# [3] = test system: Ras; test: steady-state Ras levels, Western immunoblotting; settings: 75 μM FTS, 48 hours, all cell lines, P<0.05
# Method: as §1
# [4] = test system: phospho-ERK; test: serum-stimulated phospho-ERK, kinetic study
# Method: as §2
# (§3) First, the time courses of serum-stimulated GTP loading of Ras and serum-stimulated activation of signals downstream of Ras were determined. […]
# [5] = test system: Ras, ERK, or Akt; test: total Ras, ERK, Akt in serum-stimulation experiment; settings: STS26T cells, serum-stimulation conditions
# Method: as §2, §3
structure (smiles),measurement,setting,value
"CC(C)=CCC/C(C)=C/CC/C(C)=C/CSc1ccccc1C(=O)O [FTS, S-farnesylthiosalicylic acid]",amounts of p120 RasGAP,[1],no effect
same,reduction in steady-state levels of Ras-GTP,[2],25%-55%
same,reduction in Ras levels,[3],15-30%
same,serum-stimulated increase in phospho-ERK,"[4]; STS26T cells, serum-starved 24 hours, stimulated with 10% serum",inhibited
same,serum-stimulated increase in phosphor-ERK,"[4]; all NF-1 cell lines (T265P21, ST88-14, 90-8)",reduced
same,"total amounts of Ras, ERK, or Akt",[5],no effect
